Laboratory results reported in ChEMBL document CHEMBL3045794, “Antimicrobial activity of thiazolyl benzenesulfonamide-condensed 2,4-thiazolidinediones derivatives” (2013).
In brackets after ≈: the same amount, converted by molar mass.

Assays:
Pseudomonas aeruginosa [1] = test: Antibacterial activity against Pseudomonas aeruginosa MTCC 741 assessed as growth inhibition after 24 hr by Kirby-Bauer disk diffusion method; format: functional; conditions: MTCC 741, 24 h
Bacillus subtilis [2] = test: Antibacterial activity against Bacillus subtilis MTCC 619 assessed as diameter of growth inhibition zone after 24 hr by Kirby-Bauer disk diffusion method; format: functional
Escherichia coli [3] = test: Antibacterial activity against Escherichia coli MTCC 739 assessed as growth inhibition after 24 hr by Kirby-Bauer disk diffusion method; format: functional; conditions: MTCC 739, 24 h
Escherichia coli [4] = test: Antibacterial activity against Escherichia coli MTCC 739 assessed as diameter of growth inhibition zone after 24 hr by Kirby-Bauer disk diffusion method; format: functional
Bacillus subtilis [5] = test: Antibacterial activity against Bacillus subtilis MTCC 619 assessed as growth inhibition after 24 hr by Kirby-Bauer disk diffusion method; format: functional; conditions: MTCC 619, 24 h
Staphylococcus aureus [6] = test: Antibacterial activity against Staphylococcus aureus MTCC 96 assessed as growth inhibition after 24 hr by Kirby-Bauer disk diffusion method; format: functional; conditions: MTCC 96, 24 h
[7] = tested on: Mycobacterium tuberculosis; test: Antitubercular activity against Mycobacterium tuberculosis H37Rv MTCC 200 assessed as growth inhibition measured within 10 days by BACTEC MGIT method; format: functional; conditions: H37Rv MTCC 200, 240 h
Staphylococcus aureus [8] = test: Antibacterial activity against Staphylococcus aureus MTCC 96 assessed as diameter of growth inhibition zone after 24 hr by Kirby-Bauer disk diffusion method; format: functional
Pseudomonas aeruginosa [9] = test: Antibacterial activity against Pseudomonas aeruginosa MTCC 741 assessed as diameter of growth inhibition zone after 24 hr by Kirby-Bauer disk diffusion method; format: functional
Escherichia coli [10] = test: microbe, parasite or virus in culture; conditions: MTCC 739, 24 h, read-out: DIZ
Description: Antibacterial activity against Escherichia coli MTCC 739 assessed as diameter of growth inhibition zone at 100 ug/disk after 24 hr by Kirby-Bauer disk diffusion method

Bacillus subtilis [11] = test: microbe, parasite or virus in culture; conditions: MTCC 619, 24 h, read-out: DIZ
Description: Antibacterial activity against Bacillus subtilis MTCC 619 assessed as diameter of growth inhibition zone at 100 ug/disk after 24 hr by Kirby-Bauer disk diffusion method

Staphylococcus aureus [12] = test: Antibacterial activity against Staphylococcus aureus MTCC 96 assessed as diameter of growth inhibition zone at 100 ug/disk after 24 hr by Kirby-Bauer disk diffusion method; conditions: MTCC 96, 24 h, read-out: DIZ
Pseudomonas aeruginosa [13] = test: microbe, parasite or virus in culture; conditions: MTCC 741, 24 h, read-out: DIZ
Description: Antibacterial activity against Pseudomonas aeruginosa MTCC 741 assessed as diameter of growth inhibition zone at 100 ug/disk after 24 hr by Kirby-Bauer disk diffusion method

| SMILES | MIC (Pseudomonas aeruginosa [1]) | diameter of the inhibition zone (DIZ) (Bacillus subtilis [2]) | MIC (Escherichia coli [3]) | diameter of the inhibition zone (DIZ) (Escherichia coli [4]) | MIC (Bacillus subtilis [5]) | MIC (Staphylococcus aureus [6]) | MIC99 [7] | diameter of the inhibition zone (DIZ) (Staphylococcus aureus [8]) | diameter of the inhibition zone (DIZ) (Pseudomonas aeruginosa [9]) | zone of inhibition at 100 µg/disc (Escherichia coli [10]) | zone of inhibition at 100 µg/disc (Bacillus subtilis [11]) | zone of inhibition at 100 µg/disc (Staphylococcus aureus [12]) | zone of inhibition at 100 µg/disc (Pseudomonas aeruginosa [13]) |
| --- | --- | --- | --- | --- | --- | --- | --- | --- | --- | --- | --- | --- | --- |
| Cc1cccc(C(=O)N2C(=O)S/C(=C\c3ccc(S(=O)(=O)Nc4nc(-c5ccccc5)cs4)cc3)C2=O)c1 | 100 µg/mL (≈ 178 µM) | 18 mm | 100 µg/mL (≈ 178 µM) | 18 mm | 100 µg/mL (≈ 178 µM) | 100 µg/mL (≈ 178 µM) | 125 µg/mL (≈ 223 µM) | 18 mm | 19 mm |  |  |  |  |
| Cc1ccc(C(=O)N2C(=O)S/C(=C\c3ccc(S(=O)(=O)Nc4nc(-c5ccccc5)cs4)cc3)C2=O)cc1 | 50 µg/mL (≈ 89 µM) | 23 mm | 50 µg/mL (≈ 89 µM) | 22 mm | 50 µg/mL (≈ 89 µM) | 50 µg/mL (≈ 89 µM) | 250 µg/mL (≈ 445 µM) | 22 mm | 22 mm |  |  |  |  |
| O=C1S/C(=C\c2ccc(S(=O)(=O)Nc3nc(-c4ccccc4)cs3)cc2)C(=O)N1C(=O)c1ccccc1Cl | 12.5 µg/mL (≈ 21.5 µM) | 26 mm | 12.5 µg/mL (≈ 21.5 µM) | 25 mm | 6.25 µg/mL (≈ 10.7 µM) | 6.25 µg/mL (≈ 10.7 µM) | 62.5 µg/mL (≈ 107 µM) | 24 mm | 24 mm |  |  |  |  |
| O=C1S/C(=C\c2ccc(S(=O)(=O)Nc3nc(-c4ccccc4)cs3)cc2)C(=O)N1C(=O)c1cccc(Cl)c1 | 25 µg/mL (≈ 42.9 µM) | 25 mm | 25 µg/mL (≈ 42.9 µM) | 24 mm | 12.5 µg/mL (≈ 21.5 µM) | 12.5 µg/mL (≈ 21.5 µM) | 62.5 µg/mL (≈ 107 µM) | 26 mm | 24 mm |  |  |  |  |
| O=C1S/C(=C\c2ccc(S(=O)(=O)Nc3nc(-c4ccccc4)cs3)cc2)C(=O)N1C(=O)c1ccc(Cl)cc1 | 12.5 µg/mL (≈ 21.5 µM) | 26 mm | 25 µg/mL (≈ 42.9 µM) | 23 mm | 6.25 µg/mL (≈ 10.7 µM) | 6.25 µg/mL (≈ 10.7 µM) | 62.5 µg/mL (≈ 107 µM) | 24 mm | 22 mm |  |  |  |  |
| O=C1S/C(=C\c2ccc(S(=O)(=O)Nc3nc(-c4ccccc4)cs3)cc2)C(=O)N1C(=O)c1cccc([N+](=O)[O-])c1 | 62.5 µg/mL (≈ 105 µM) | 24 mm | 62.5 µg/mL (≈ 105 µM) | 22 mm | 25 µg/mL (≈ 42.2 µM) | 62.5 µg/mL (≈ 105 µM) | 1000 µg/mL (≈ 1690 µM) | 21 mm | 22 mm |  |  |  |  |
| O=C1S/C(=C\c2ccc(S(=O)(=O)Nc3nc(-c4ccccc4)cs3)cc2)C(=O)N1C(=O)c1ccc([N+](=O)[O-])cc1 | 25 µg/mL (≈ 42.2 µM) | 24 mm | 50 µg/mL (≈ 84.4 µM) | 24 mm | 12.5 µg/mL (≈ 21.1 µM) | 25 µg/mL (≈ 42.2 µM) | 500 µg/mL (≈ 844 µM) | 25 mm | 24 mm |  |  |  |  |
| O=C1S/C(=C\c2ccc(S(=O)(=O)Nc3nc(-c4ccccc4)cs3)cc2)C(=O)N1C(=O)c1ccc([N+](=O)[O-])cc1[N+](=O)[O-] | 100 µg/mL (≈ 157 µM) | 22 mm | 12.5 µg/mL (≈ 19.6 µM) | 24 mm | 6.25 µg/mL (≈ 9.8 µM) | 12.5 µg/mL (≈ 19.6 µM) | 1000 µg/mL (≈ 1570 µM) | 23 mm | 22 mm |  |  |  |  |
| O=C1S/C(=C\c2ccc(S(=O)(=O)Nc3nc(-c4ccccc4)cs3)cc2)C(=O)N1C(=O)c1ccccc1 | 62.5 µg/mL (≈ 114 µM) | 24 mm | 62.5 µg/mL (≈ 114 µM) | 22 mm | 25 µg/mL (≈ 45.7 µM) | 62.5 µg/mL (≈ 114 µM) | 125 µg/mL (≈ 228 µM) | 21 mm | 22 mm |  |  |  |  |
| O=C(O)c1cn(C2CC2)c2cc(N3CCNCC3)c(F)cc2c1=O [CIPROFLOXACIN] | ≤ 1 µg/mL |  | ≤ 1 µg/mL |  | ≤ 1 µg/mL | ≤ 1 µg/mL |  |  |  | 30 mm | 33 mm | 32 mm | 31 mm |
| NNC(=O)c1ccncc1 [ISONIAZID] |  |  |  |  |  |  | 0.2 µg/mL (≈ 1.46 µM) |  |  |  |  |  |  |
